# In patent US20260207605A1, “KRAS G12D INHIBITORS AND USES THEREOF” (Abbisko Therapeutics Co., Ltd., priority 2022, published 2026):
# Assay: in vivo
# Settings: male, ICR, mouse
# Excerpt: The purpose of this trial is to study the pharmacokinetic behavior of some compounds of the present invention, and the administration method is: single oral administration (PO) or intravenous administration (IV) to ICR mice.
# ICR mice male N=9 original source: Shanghai Sippr-Bk Lab Animal Co., Ltd.
# The compounds were weighed and dissolved in the corresponding solution (0.5% CMC+1% tween water solution or 10% PG+10% Solutol®+80% pH3 citrate buffer). The mixture was then shaken well and sonicated to prepare a 1 mg/mL stock solution. Nine mice were orally administered at a dose of 10 mg/kg or intravenously administered at a dose of 2 mg/kg after an overnight fast.
# About 90 μL of blood was collected via the submandibular vein per time point, heparin sodium anticoagulant was added, the sample was placed on ice after collection, and plasma was centrifuged within 1 hour (centrifugation conditions: 8,000 rpm, 6 minutes, 2-8° C.). The blood collection timepoints were 0, 0.25, 0.5, 1, 2, 4, 6, 8 and 24 h. The samples were stored in a −20° C. refrigerator.
# The plasma sample was 40 μL, 160 μL of ice-cold acetonitrile containing internal standard was added, vortexed for 3 minutes, and centrifuged at 11,000 rpm for 5 minutes. 100 μL of the supernatant was taken and added to 100 μL of water, 5 μL of the sample was taken and injected into LC/MS/MS for analysis.
smiles,measurement,setting,value
"C#Cc1c(F)ccc2cc(N)cc(-c3ncc4c(N5C[C@H]6CC[C@@H](C5)N6)nc(OC[C@@]56CCCN5C/C(=C\F)C6)nc4c3F)c12 [Reference Compound 4, 4-(4-((1R,5S)-3,8-diazabicyclo [3.2.1]octan-3-yl)-8-fluoro-2-(((S,Z)-2-(fluoromethylene)tetrahydro-1H-pyrrolizin-7a(5H)-yl)methoxy)pyrido[4,3-d]pyrimidin-7-yl)-5-ethynyl-6-fluoronaphthalen-2-amine]",AUC,"iv, 2 mg/kg",163 ng·h/mL
same,Cmax,"iv, 2 mg/kg",104 ng/mL
same,half-life,"iv, 2 mg/kg",8.4 h
same,AUC,"po, 10 mg/kg",52.8 ng·h/mL
same,Cmax,"po, 10 mg/kg",14.8 ng/mL
same,bioavailability,"po, 10 mg/kg",6.5%
same,half-life,"po, 10 mg/kg",4.6 h
